Test results published in patent publication US6869971B1, “UCS1025 derivatives” (Kyowa Hakko Kogyo Co., Ltd., priority 1999, dated 2005).
≈ marks a conversion by molar mass, not a printed value.

Columns and labels:
Assay type in all cases: cell-based
[1] = system: Bacillus subtilis ATCC 10707; assay: Antibacterial activity (MIC), agar dilution method; conditions: ATCC10707, read-out: minimum inhibitory concentration (MIC), BS
Description: (§1) Antibacterial activities (minimum inhibitory concentration (MIC: mg/ml)) of Compounds (I) on various bacteria are shown in Table 2. The antibacterial activity was measured by an agar dilution method using a medium comprising 3 g/L Bacto-Tryptone (manufactured by Difco), 3 g/L meat extract, 1 g/L yeast extract, 1 g/L glucose and 16 g/L agar.

[2] = system: Enteroccccus hirae ATCC 10541; assay: Antibacterial activity (MIC), agar dilution method; conditions: read-out: minimum inhibitory concentration (MIC), ER
Description: as §1

[3] = system: human renal carcinoma cell line ACHN; assay: Growth inhibition action on human renal carcinoma cell line ACHN; conditions: ACHN cells, 72 hours culture with compound, Cell proliferation kit II, read-out: IC50 (concentration inhibiting 50% of the cell growth)
Description: Cells of human renal carcinoma cell line ACHN adjusted to a density of 3×10^4 cells/ml with RPMI (Roswell Park Memorial Institute) medium comprising 10% fetal bovine serum and 2 mmol/l glutamine were dispensed in a volume of 50 μl into each well of a 96 well microtiter plate and cultured at 37° C. for 24 hours in a carbon dioxide incubator. Each of the test compounds serially diluted with the above medium was added to each well in a volume of 50 μl, following by culturing at 37° C. for 72 hours in a carbon dioxide incubator. After discarding the culture supernatant, each well was washed twice with 0.1 ml of phosphate buffered saline (PBS), and then 0.1 ml of the above medium was again added to each well. Cell proliferation kit II (Boehringer Mannheim) was used for the measurement of the number of cells in each well. After addition of a color-producing reagent and subsequent incubation at 37° C. for 3 hours in a carbon dioxide incubator, absorbance at 490 nm and 655 nm was measured using a microplate reader, and a value (differential absorbance) was calculated by subtracting the absorbance at 655 nm from the absorbance at 490 nm in each well. By comparing the differential absorbance obtained from untreated cells and that obtained from cells treated with a predetermined concentration of each test compound, the concentration of the test compound capable of inhibiting 50% of the cell growth was calculated and expressed as IC50.

Structure (SMILES) | MIC [1] [µg/mL] | MIC [2] [µg/mL] | IC50 [3] [µM]
COC(=O)[C@@H]1CCN2C(=O)C(C(=O)C3[C@H]4CCCC[C@@H]4C=C[C@@H]3C)=C[C@]12O (stereo partly shown) [Compound 1] | 520 (≈ 1.39 mM) | 520 (≈ 1.39 mM) | 4.4
C[C@H]1C=C[C@H]2CCCC[C@@H]2C1C(=O)C1Cc2cccn2C1=O (stereo partly shown) [Compound 16] | – | – | 64
CCCN(CCC)C(=O)[C@@H]1CCN2C(=O)C(C(=O)C3[C@H]4CCCC[C@@H]4C=C[C@@H]3C)=C[C@]12O (stereo partly shown) [Compound 7] | 1300 (≈ 2.94 mM) | 5000 (≈ 11.3 mM) | –
CCS[C@@H]1[C@H](C(=O)C2[C@H]3CCCC[C@@H]3C=C[C@@H]2C)C(=O)N2CC[C@@H](C(=O)N(CC)CC)[C@@]12O (stereo partly shown) [Compound 12] | – | – | 5.7
CCN(CC)C(=O)[C@@H]1CCN2C(=O)C(C(=O)C3[C@H]4CCCC[C@@H]4C=C[C@@H]3C)=C[C@]12O (stereo partly shown) [Compound 6] | 1800 (≈ 4.34 mM) | 3600 (≈ 8.68 mM) | 5.6
CCCCN(CCCC)C(=O)[C@@H]1CCN2C(=O)C(C(=O)C3[C@H]4CCCC[C@@H]4C=C[C@@H]3C)=C[C@]12O (stereo partly shown) [Compound 8] | 380 (≈ 0.807 mM) | 1500 (≈ 3.19 mM) | 2.7

Results, then the molecule that gave them:

MIC [1] [µg/mL] | MIC [2] [µg/mL] | IC50 [3] [µM] | Structure (SMILES)
16000 (≈ 37.2 mM) | 8100 (≈ 18.8 mM) | – | CCN(CC)C(=O)[C@@H]1CCN2C(=O)C3(C(=O)C4[C@H]5CCCC[C@@H]5C=C[C@@H]4C)O[C@@H]3[C@]12O (stereo partly shown) [Compound 38]
48000 (≈ 116 mM) | 48000 (≈ 116 mM) | – | C=CCOC(=O)[C@@H]1CCN2C(=O)C3(C(=O)C4[C@H]5CCCC[C@@H]5C=C[C@@H]4C)O[C@@H]3[C@]12O (stereo partly shown) [Compound 36]
13000 (≈ 29.7 mM) | 13000 (≈ 29.7 mM) | – | C[C@H]1C=C[C@H]2CCCC[C@@H]2C1C(=O)[C@@]1(Br)C(=O)N2CC[C@H]3C(=O)O[C@@H]1[C@]32O (stereo partly shown) [Compound 32]
